The values that follow come from patent US20090036448A1, “PYRIMIDINE DERIVATIVES AND METHODS OF TREATMENT RELATED TO THE USE THEREOF” (TAISHO PHARMECUTICAL CO., LTD., priority 2004, published 2009).

Chain of MCH receptor (Q99705 whole entry): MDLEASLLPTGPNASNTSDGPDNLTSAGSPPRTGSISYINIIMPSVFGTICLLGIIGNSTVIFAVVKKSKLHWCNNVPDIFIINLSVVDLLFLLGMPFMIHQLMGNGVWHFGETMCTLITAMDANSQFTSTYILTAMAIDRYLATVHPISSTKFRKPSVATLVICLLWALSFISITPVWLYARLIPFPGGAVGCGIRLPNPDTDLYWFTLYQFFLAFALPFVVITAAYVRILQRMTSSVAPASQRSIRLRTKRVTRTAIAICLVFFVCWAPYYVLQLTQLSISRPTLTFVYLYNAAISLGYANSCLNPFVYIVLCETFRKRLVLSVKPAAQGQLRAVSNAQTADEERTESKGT

This assay addresses MCH receptor (Homo sapiens, UniProt Q99705). Briefly: Receptor binding assay with Radiolabelled MCH Ligand. Set-up: expressed in transfected cells; host or cells: 293 cells (human kidney, ATCC), transient transfection; crude membranes. Conditions: class by percent of control at 10^-7 M or IC50. The gist of the method: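 Membranes from 293 cells transiently transfected with human MCH receptor competed test compounds against a radiolabelled MCH ligand in Tris-HCl pH 7.4 with MgCl2 and EDTA for 60–120 min at room temperature. Filtration and scintillation counting followed, with cold MCH defining nonspecific binding. IC50 came from logit-log plots of %B/B0, and Ki from the Cheng-Prusoff equation.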
`Cc1nc(N[C@H]2CC[C@@H](NC(=O)Cc3ccccc3)CC2)cc(N(C)C)n1` [compound 235]: the class is on record as 3 (Class 3: The value of percent of control at 10^−7 M was more than 60% or the value of IC50 was more than 200 nM.).

As for `Cc1nc(N[C@H]2CC[C@@H](NC(=O)/C=C/c3ccccc3)CC2)cc(N(C)C)n1` [compound 210], the class is listed as 3 (Class 3: The value of percent of control at 10^−7 M was more than 60% or the value of IC50 was more than 200 nM.).

For the compound `Cc1nc(N[C@H]2CC[C@@H](NC(=O)CSCc3ccccc3)CC2)cc(N(C)C)n1` [compound 336], the class was 3 (Class 3: The value of percent of control at 10^−7 M was more than 60% or the value of IC50 was more than 200 nM.).

Consider `C=Cc1ccc(S(=O)(=O)N[C@H]2CC[C@@H](Nc3cc(N(C)C)nc(C)n3)CC2)cc1` [compound 482], for which the class was 3 (Class 3: The value of percent of control at 10^−7 M was more than 60% or the value of IC50 was more than 200 nM.).

For `Cc1nc(N[C@H]2CC[C@@H](NCCOCc3ccccc3)CC2)cc(N(C)C)n1` [compound 359], the class was 3 (Class 3: The value of percent of control at 10^−7 M was more than 60% or the value of IC50 was more than 200 nM.).

For the compound `Cc1nc(N[C@H]2CC[C@@H](NS(=O)(=O)c3cccc([N+](=O)[O-])c3)CC2)cc(N(C)C)n1` [compound 504], the class is reported as 3 (Class 3: The value of percent of control at 10^−7 M was more than 60% or the value of IC50 was more than 200 nM.).

Consider `Cc1nc(N[C@H]2CC[C@@H](NCC(C)(C)Oc3ccc(Cl)cc3)CC2)cc(N(C)C)n1` [compound 408], for which the class is given as 3 (Class 3: The value of percent of control at 10^−7 M was more than 60% or the value of IC50 was more than 200 nM.).

Regarding `Cc1nc(N[C@H]2CC[C@@H](NCc3ccc(Br)cc3)CC2)cc(N(C)C)n1` [compound 358], the class was 3 (Class 3: The value of percent of control at 10^−7 M was more than 60% or the value of IC50 was more than 200 nM.).

`Cc1nc(N[C@H]2CC[C@@H](NC(=O)COc3ccc(C(C)(C)C)cc3)CC2)cc(N(C)C)n1` [compound 255]: the class was 3 (Class 3: The value of percent of control at 10^−7 M was more than 60% or the value of IC50 was more than 200 nM.).

For the compound `Cc1nc(N[C@H]2CC[C@@H](NC(=O)Cc3ccccc3C(=O)Nc3ccc(F)cc3F)CC2)cc(N(C)C)n1` [compound 294], the class is 3 (Class 3: The value of percent of control at 10^−7 M was more than 60% or the value of IC50 was more than 200 nM.).

`Cc1nc(N[C@H]2CC[C@@H](NC(=S)Nc3c(F)cc(Br)cc3Br)CC2)cc(N(C)C)n1` [compound 448]: the class is given as 3 (Class 3: The value of percent of control at 10^−7 M was more than 60% or the value of IC50 was more than 200 nM.).

Take `Cc1nc(N[C@H]2CC[C@@H](NC(=O)CC3=CCCCC3)CC2)cc(N(C)C)n1` [compound 278]: the class was 3 (Class 3: The value of percent of control at 10^−7 M was more than 60% or the value of IC50 was more than 200 nM.).

Turning to `CCOc1ccccc1NC(=S)N[C@H]1CC[C@@H](Nc2cc(N(C)C)nc(C)n2)CC1` [compound 446], the class is recorded as 3 (Class 3: The value of percent of control at 10^−7 M was more than 60% or the value of IC50 was more than 200 nM.).

`Cc1nc(N[C@H]2CC[C@@H](NC(=O)c3ccccc3-c3ccc(C(F)(F)F)cc3)CC2)cc(N(C)C)n1` [compound 307]: the class is on record as 3 (Class 3: The value of percent of control at 10^−7 M was more than 60% or the value of IC50 was more than 200 nM.).

In the case of `Cc1nc(N[C@H]2CC[C@@H](NC(=O)Cc3ccc(F)cc3)CC2)cc(N(C)C)n1` [compound 250], the class is listed as 3 (Class 3: The value of percent of control at 10^−7 M was more than 60% or the value of IC50 was more than 200 nM.).

Turning to `Cc1nc(N[C@H]2CC[C@@H](NC(=O)c3ccc(F)cc3)CC2)cc(N(C)C)n1` [compound 221, N-(cis-4-{[6-(dimethylamino)-2-methylpyrimidin-4-yl]amino}cyclohexyl)-4-fluorobenzamide], the class is 3 (Class 3: The value of percent of control at 10^−7 M was more than 60% or the value of IC50 was more than 200 nM.).

As for `Cc1nc(N[C@H]2CC[C@@H](NC(=O)c3cccc([N+](=O)[O-])c3)CC2)cc(N(C)C)n1` [compound 232, N-(cis-4-{[6-(dimethylamino)-2-methylpyrimidin-4-yl]amino}cyclohexyl)-3-nitrobenzamide], the class was 3 (Class 3: The value of percent of control at 10^−7 M was more than 60% or the value of IC50 was more than 200 nM.).

Regarding `Cc1nc(N[C@H]2CC[C@@H](NCc3ccc4c(c3)C(=O)c3ccccc3C4=O)CC2)cc(N(C)C)n1` [compound 353], the class is 3 (Class 3: The value of percent of control at 10^−7 M was more than 60% or the value of IC50 was more than 200 nM.).

As for `Cc1nc(N[C@H]2CC[C@@H](NS(=O)(=O)c3ccccc3OC(F)(F)F)CC2)cc(N(C)C)n1` [compound 491], the class is 3 (Class 3: The value of percent of control at 10^−7 M was more than 60% or the value of IC50 was more than 200 nM.).

Regarding `Cc1nc(N[C@H]2CC[C@@H](NS(=O)(=O)/C=C/c3ccccc3)CC2)cc(N(C)C)n1` [compound 471], the class is 3 (Class 3: The value of percent of control at 10^−7 M was more than 60% or the value of IC50 was more than 200 nM.).

Take `CCOC(=O)N[C@H]1CC[C@@H](Nc2cc(N(C)C)nc(C)n2)CC1` [compound 459]: the class is 3 (Class 3: The value of percent of control at 10^−7 M was more than 60% or the value of IC50 was more than 200 nM.).

In the case of `Cc1nc(N[C@H]2CC[C@@H](NC(=O)c3ccccc3)CC2)cc(N(C)C)n1` [compound 200, N-(cis-4-{[6-(dimethylamino)-2-methylpyrimidin-4-yl]amino}cyclohexyl)benzamide], the class is recorded as 2 (Class 2: The value of percent of control at 10^−7 M was from 40% to 60% or the value of IC50 was from 50 nM to 200 nM.).

As for `Cc1nc(N[C@H]2CC[C@@H](NC(=O)C3CC3)CC2)cc(N(C)C)n1` [compound 211], the class is 3 (Class 3: The value of percent of control at 10^−7 M was more than 60% or the value of IC50 was more than 200 nM.).

Take `Cc1nc(N[C@H]2CC[C@@H](NS(=O)(=O)c3cccn3-c3ncc(C(F)(F)F)cc3Cl)CC2)cc(N(C)C)n1` [compound 516]: the class is recorded as 3 (Class 3: The value of percent of control at 10^−7 M was more than 60% or the value of IC50 was more than 200 nM.).

Consider `Cc1nc(N[C@H]2CC[C@@H](NC(=O)c3ccc(C#N)cc3)CC2)cc(N(C)C)n1` [compound 259], for which the class is given as 3 (Class 3: The value of percent of control at 10^−7 M was more than 60% or the value of IC50 was more than 200 nM.).

As for `CCSC(C(=O)N[C@H]1CC[C@@H](Nc2cc(N(C)C)nc(C)n2)CC1)(c1ccccc1)c1ccccc1` [compound 306, N-(cis-4-{[6-(dimethylamino)-2-methylpyrimidin-4-yl]amino}cyclohexyl)-2-(ethylthio)-2,2-diphenylacetamide], the class was 1 (Class 1: The value of percent of control at 10^−7 M was less than 40% or the value of IC50 was less than 50 nM.).

For the compound `COCCOC(=O)N[C@H]1CC[C@@H](Nc2cc(N(C)C)nc(C)n2)CC1` [compound 457], the class is 3 (Class 3: The value of percent of control at 10^−7 M was more than 60% or the value of IC50 was more than 200 nM.).

Regarding `COc1ccc2c(CC(=O)N[C@H]3CC[C@@H](Nc4cc(N(C)C)nc(C)n4)CC3)cc(=O)oc2c1` [compound 291], the class is recorded as 3 (Class 3: The value of percent of control at 10^−7 M was more than 60% or the value of IC50 was more than 200 nM.).

On to `COC(=O)c1csc(S(=O)(=O)N[C@H]2CC[C@@H](Nc3cc(N(C)C)nc(C)n3)CC2)c1OC` [compound 518], for which the class was 3 (Class 3: The value of percent of control at 10^−7 M was more than 60% or the value of IC50 was more than 200 nM.).

With `Cc1nc(N[C@H]2CC[C@@H](NC(=O)Cc3ccccc3C(=O)Nc3ccc(C(C)C)cc3)CC2)cc(N(C)C)n1` [compound 296], the class is listed as 3 (Class 3: The value of percent of control at 10^−7 M was more than 60% or the value of IC50 was more than 200 nM.).

For the compound `Cc1nc(N[C@H]2CC[C@@H](NC(=O)c3ccccc3I)CC2)cc(N(C)C)n1` [compound 224], the class was 3 (Class 3: The value of percent of control at 10^−7 M was more than 60% or the value of IC50 was more than 200 nM.).

As for `COC(=O)c1ccc(S(=O)(=O)N[C@H]2CC[C@@H](Nc3cc(N(C)C)nc(C)n3)CC2)n1C` [compound 507], the class is recorded as 3 (Class 3: The value of percent of control at 10^−7 M was more than 60% or the value of IC50 was more than 200 nM.).

`Cc1nc(N[C@H]2CC[C@@H](NC(=O)Nc3c(Br)cc(C(C)C)cc3Br)CC2)cc(N(C)C)n1` [compound 423]: the class was 3 (Class 3: The value of percent of control at 10^−7 M was more than 60% or the value of IC50 was more than 200 nM.).

Regarding `Cc1nc(N[C@H]2CC[C@@H](NS(=O)(=O)c3ccc(C)c(Cl)c3)CC2)cc(N(C)C)n1` [compound 485], the class is 3 (Class 3: The value of percent of control at 10^−7 M was more than 60% or the value of IC50 was more than 200 nM.).

On to `Cc1nc(N[C@H]2CC[C@@H](NC(=O)OCc3ccc([N+](=O)[O-])cc3)CC2)cc(N(C)C)n1` [compound 460], for which the class is listed as 3 (Class 3: The value of percent of control at 10^−7 M was more than 60% or the value of IC50 was more than 200 nM.).

Turning to `Cc1nc(N[C@H]2CC[C@@H](NCCc3ccccc3Br)CC2)cc(N(C)C)n1` [compound 406], the class is 3 (Class 3: The value of percent of control at 10^−7 M was more than 60% or the value of IC50 was more than 200 nM.).

As to `Cc1nc(N[C@H]2CC[C@@H](NC(=O)/C=C/c3ccc(OC(F)(F)F)cc3)CC2)cc(N(C)C)n1` [compound 269], the class is recorded as 3 (Class 3: The value of percent of control at 10^−7 M was more than 60% or the value of IC50 was more than 200 nM.).
